This note sets out measurements from patent US20070149435A1, “Cleansing composition including microencapsulated delivery vehicles” (Kimberly-Clark Worldwide, Inc., priority 2005, published 2007).

Like-named read-outs stand apart in the source and are kept apart here.

In assay [1] the test system is Methicillin-resistant Staphylococcus aureus. As to conditions: 0.005% PHMB, 10-minute contact time, 5% bovine serum albumin soil, n = 2. The procedure:
This Example utilized 1.5-milliliter tubes containing a 1-milliliter blend of phosphate-buffered saline (pH 7.2) and 5% (w/v) bovine serum albumin soil. The tubes were placed in electric heat blocks set for 22° C., 30° C., 40° C. and 50° C., respectively. The tubes remained in the electric heat blocks for approximately 10 minutes.
After 10 minutes, 0.005% (by weight) active polyhexamehtylene biguanide (PHMB) (commercially available as Cosmocil® CQ from Arch Biocides, Inc., United Kingdom) was added to two tubes at each temperature level. Duplicate tubes without PHMB at each temperature were also made.
The tubes were then vortexed and Methicillin-resistant Staphylococcus aureus (approximately 1×10^5 colony forming units (CFU)) was then added to each tube. All of the tubes were then placed back into the heat blocks at their respective temperatures.
Following a 10-minute contact time, 0.1 milliliters of each sample was transferred to 0.9 milliliters letheen broth to neutralize the PHMB activity. The letheen samples were then plated in duplicate on Tryptic Soy agar plates using a WASP2 spiral plater (commercially available from Don Whitley Scientific, Ltd., Yorkshire, United Kingdom). The plates were inverted and incubated at 37±2° C. for 48 hours.
After 48 hours, the plates were evaluated using a total plate count to determine the biocidal efficacy of each sample.

For assay [2], the system named is Staphylococcus aureus. The assay can be described thus: Biocidal efficacy of magnesium chloride in combination with PHMB, total plate count. The class given is cell-based. Conditions: 15-minute contact time. The procedure: A 1.5-milliliter tube was prepared using magnesium chloride in water.
Two control samples were also prepared. One control sample was filled with 0.850 milliliters magnesium chloride. A second control sample was prepared by introducing 0.850 milliliters sterile water.
The tubes were then vortexed until an increase in temperature was observed.
0.05 milliliters of 1×10^7 CFU/milliliter culture of Staphylococcus aureus was added to each tube. After a 15-minute contact time, 0.1 milliliters of each tube was transferred into 0.9 milliliters letheen broth. To the broth, 10 milligrams/milliliter sodium thiosulfate was also added. The tubes were again vortexed. After vortexing, 0.1 milliliters of each tube was plated on Tryptic soy agar plates. The plates were inverted and incubated at 37° C. for 24 hours. An inoculum control plate was also plated to determine the concentration of the inoculum
After 24 hours, the plates were evaluated using a total plate count to determine the biocidal efficacy of each sample.

For the compound polyhexamethylene biguanide [PHMB], the “Total CFU Recovered MRSA” value is listed as 3.5 in assay [1] (22° C.), 2.9 in assay [1] (30° C.), 2.1 in assay [1] (40° C.) and less than 2 in assay [1] (50° C.). The LOG10 recovered in assay [2] (PHMB 0.00025%, magnesium chloride 0%) is 4.8.

`[Cl-].[Cl-].[Mg+2]` [Magnesium Chloride, magnesium chloride]: the LOG10 recovered in assay [2] (PHMB 0%, magnesium chloride 50%) was found to be 1.9.
